Assay results published in PubChem BioAssay (NCI).
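Protocol summary: plate cells (96-well), add compound at 5 concentrations, incubate 48 h, interpolate endpoints linearly. Abbreviation: GI50, concentration required for 50% inhibition of growth. At the TGI there is no net growth.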

Assays:
Test in all cases: growth of human tumour cells (NCI), 48 h
[1] = tested on: MOLT-4 leukemia
[2] = tested on: SR leukemia
[3] = tested on: OVCAR-8 ovarian
[4] = tested on: HT29 colon
[5] = tested on: KM12 colon
[6] = tested on: 786-0 renal
[7] = tested on: HOP-92 NSCLC
[8] = tested on: TK-10 renal
[9] = tested on: SK-MEL-28 melanoma
[10] = tested on: M14 melanoma
[11] = tested on: BT-549 breast
[12] = tested on: SK-MEL-5 melanoma
[13] = tested on: SW-620 colon
[14] = tested on: OVCAR-3 ovarian
[15] = tested on: UACC-257 melanoma
[16] = tested on: CCRF-CEM leukemia
[17] = tested on: A549 NSCLC
[18] = tested on: A498 renal
[19] = tested on: COLO 205 colon
[20] = tested on: MDA-MB-435
[21] = tested on: DU-145 prostate
[22] = tested on: NCI-H522 lung
[23] = tested on: SK-OV-3 ovarian
[24] = tested on: MALME-3M melanoma
[25] = tested on: SF-268 CNS
[26] = tested on: NCI-H460 lung
[27] = tested on: U251 CNS
[28] = tested on: NCI-H23 lung
[29] = tested on: HCT-116 colon
[30] = tested on: HL-60(TB) leukemia
[31] = tested on: SN12C renal
[32] = tested on: SNB-19 CNS
[33] = tested on: EKVX NSCLC
[34] = tested on: RXF 393 renal
[35] = tested on: SF-539 CNS
[36] = tested on: OVCAR-5 ovarian
[37] = tested on: RPMI-8226 leukemia
[38] = tested on: PC-3 prostate
[39] = tested on: HCT-15 colon
[40] = tested on: SK-MEL-2 melanoma
[41] = tested on: MCF7 breast
[42] = tested on: MDA-MB-231 breast
[43] = tested on: IGROV1 ovarian
[44] = tested on: NCI-H226 lung
[45] = tested on: HOP-62 NSCLC
[46] = tested on: ACHN renal
[47] = tested on: SNB-75 CNS
[48] = tested on: HCC-2998 colon
[49] = tested on: OVCAR-4 ovarian
[50] = tested on: UO-31 renal
[51] = tested on: T-47D breast
[52] = tested on: UACC-62 melanoma
[53] = tested on: CAKI-1 renal
[54] = tested on: HS 578T breast
[55] = tested on: LOX IMVI melanoma
[56] = tested on: NCI/ADR-RES ovarian
[57] = tested on: SF-295 CNS
[58] = tested on: K-562 leukemia

## COc1cc(-c2nn(C(=O)NS(=O)(=O)c3ccc(C)cc3)cc2-c2ccncc2)ccc1Cl
[1]
  GI50: 10.6 µM
  TGI: 54.1 µM
[2]
  GI50: 5.1 µM
  TGI: 40.9 µM
[3]
  GI50: 2.02 µM
  TGI: 93.6 µM
[4]
  GI50: 2.89 µM
  TGI: 17.6 µM
[5]
  GI50: 11 µM
  TGI: 43.5 µM
[6]
  GI50: 3.47 µM
  TGI: 17.7 µM
[7]
  GI50: 10.3 µM
  TGI: 77.8 µM
[8]
  GI50: 4.9 µM
  TGI: 19.8 µM
[9]
  GI50: 3.51 µM
  TGI: 13.1 µM
[10]
  GI50: 3.6 µM
  TGI: 14.2 µM
[11]
  GI50: 2.66 µM
  TGI: 10.6 µM
[12]
  GI50: 4.58 µM
  TGI: 17.1 µM
[13]
  GI50: 20.4 µM
  TGI: > 100 µM
[14]
  GI50: 25.2 µM
  TGI: > 100 µM
[15]
  GI50: 12.1 µM
  TGI: 60.2 µM
[16]
  GI50: 14.1 µM
  TGI: > 100 µM
[17]
  GI50: 4.43 µM
  TGI: 35 µM
[18]
  GI50: 6.98 µM
  TGI: 39.6 µM
[19]
  GI50: 3.89 µM
  TGI: 15.4 µM
[20]
  GI50: 5.6 µM
  TGI: 25.3 µM
[21]
  GI50: 6.88 µM
  TGI: 75.7 µM
[22]
  GI50: 10.4 µM
  TGI: 26.7 µM
[23]
  GI50: 3.38 µM
  TGI: 13.6 µM
[24]
  GI50: 4.14 µM
  TGI: 15.6 µM
[25]
  GI50: 4.32 µM
  TGI: > 100 µM
[26]
  GI50: 13.3 µM
  TGI: 38.5 µM
[27]
  GI50: 6.16 µM
  TGI: 28.5 µM
[28]
  GI50: 5.27 µM
  TGI: 28.9 µM
[29]
  GI50: 5.63 µM
  TGI: 32.2 µM
[30]
  GI50: 4.63 µM
  TGI: 24.9 µM
[31]
  GI50: 3.02 µM
  TGI: 24.1 µM
[32]
  GI50: 4.9 µM
  TGI: 38.5 µM
[33]
  GI50: 2.78 µM
  TGI: 27.6 µM
[34]
  GI50: 2.67 µM
  TGI: 12 µM
[35]
  GI50: 3.61 µM
  TGI: 14.7 µM
[36]
  GI50: 5.53 µM
  TGI: 39.4 µM
[37]
  GI50: 15.5 µM
  TGI: > 100 µM
[38]
  GI50: 16.1 µM
  TGI: > 100 µM
[39]
  GI50: 10.2 µM
  TGI: 44.7 µM
[40]
  GI50: 4.65 µM
  TGI: 15.4 µM
[41]
  GI50: 5.76 µM
  TGI: 26.2 µM
[42]
  GI50: 3.19 µM
  TGI: 28.2 µM
[43]
  GI50: 5.1 µM
  TGI: > 100 µM
[44]
  GI50: 2.88 µM
  TGI: 14.8 µM
[45]
  GI50: 2.9 µM
  TGI: 10.8 µM
[46]
  GI50: 3.48 µM
  TGI: 36.1 µM
[47]
  GI50: 1.69 µM
  TGI: 7.52 µM
[48]
  GI50: 11.4 µM
  TGI: 35.8 µM
[49]
  GI50: 3.26 µM
  TGI: 27.3 µM
[50]
  GI50: 3.74 µM
  TGI: 16 µM
[51]
  GI50: 6.34 µM
  TGI: 31.2 µM
[52]
  GI50: 2.28 µM
  TGI: 10.2 µM
[53]
  GI50: 3.15 µM
  TGI: 26.9 µM
[54]
  GI50: 7.38 µM
  TGI: > 100 µM
[55]
  GI50: 3.54 µM
  TGI: 18.1 µM
[56]
  GI50: 3.93 µM
  TGI: 80.6 µM

## C[C@@]1(c2ncncc2F)NC(=O)c2cc(-c3cn[nH]c3)ccc21
[1]
  GI50: 26.5 µM
  TGI: > 100 µM
[2]
  GI50: 15.6 µM
  TGI: > 100 µM
[3]
  GI50: 26.9 µM
  TGI: > 100 µM
[4]
  GI50: 7.46 µM
  TGI: 90.9 µM
[5]
  GI50: 29.6 µM
  TGI: > 100 µM
[6]
  GI50: 23.6 µM
  TGI: 91.1 µM
[7]
  GI50: 22.6 µM
  TGI: 88.5 µM
[8]
  GI50: 10.9 µM
  TGI: 58.3 µM
[9]
  GI50: 11.7 µM
  TGI: 73.4 µM
[10]
  GI50: 15.2 µM
  TGI: 77.7 µM
[11]
  GI50: 11.8 µM
  TGI: 49.3 µM
[12]
  GI50: 20 µM
  TGI: > 100 µM
[13]
  GI50: 6.79 µM
  TGI: > 100 µM
[14]
  GI50: 21.9 µM
  TGI: > 100 µM
[15]
  GI50: 30.3 µM
  TGI: 98.7 µM
[16]
  GI50: 42.3 µM
  TGI: > 100 µM
[17]
  GI50: 28.2 µM
  TGI: > 100 µM
[18]
  GI50: 14.4 µM
  TGI: 50.5 µM
[20]
  GI50: 19.9 µM
  TGI: > 100 µM
[21]
  GI50: 28.8 µM
  TGI: > 100 µM
[22]
  GI50: 13.1 µM
  TGI: > 100 µM
[23]
  GI50: 18.5 µM
  TGI: 76 µM
[24]
  GI50: 12.9 µM
  TGI: 68.4 µM
[25]
  GI50: 28.4 µM
  TGI: > 100 µM
[26]
  GI50: 25 µM
  TGI: > 100 µM
[27]
  GI50: 29.4 µM
  TGI: > 100 µM
[28]
  GI50: 18.7 µM
  TGI: > 100 µM
[29]
  GI50: 5.48 µM
  TGI: > 100 µM
[30]
  GI50: 15.8 µM
  TGI: 60.4 µM
[31]
  GI50: 26.5 µM
  TGI: > 100 µM
[32]
  GI50: 31.9 µM
  TGI: > 100 µM
[33]
  GI50: 22.1 µM
  TGI: > 100 µM
[34]
  GI50: 15.2 µM
  TGI: 37.3 µM
[35]
  GI50: 5.61 µM
  TGI: 32.7 µM
[36]
  GI50: 22.4 µM
  TGI: 99 µM
[37]
  GI50: 31 µM
  TGI: 95.2 µM
[38]
  GI50: 27.2 µM
  TGI: > 100 µM
[39]
  GI50: 20.8 µM
  TGI: > 100 µM
[40]
  GI50: 23.8 µM
  TGI: 68.2 µM
[41]
  GI50: 21 µM
  TGI: > 100 µM
[42]
  GI50: 27.6 µM
  TGI: 89.5 µM
[43]
  GI50: 21.4 µM
  TGI: > 100 µM
[44]
  GI50: 20.1 µM
  TGI: > 100 µM
[45]
  GI50: 18.7 µM
  TGI: > 100 µM
[47]
  GI50: 4.45 µM
  TGI: 40.3 µM
[48]
  GI50: 22.9 µM
  TGI: > 100 µM
[49]
  GI50: 38.5 µM
  TGI: > 100 µM
[50]
  GI50: 17.2 µM
  TGI: 72.8 µM
[51]
  GI50: 27.9 µM
  TGI: > 100 µM
[52]
  GI50: 18.8 µM
  TGI: 70.6 µM
[57]
  GI50: 29.4 µM
  TGI: > 100 µM
[54]
  GI50: 23 µM
  TGI: > 100 µM
[55]
  GI50: 8.23 µM
  TGI: > 100 µM
[56]
  GI50: 37.9 µM
  TGI: > 100 µM
[58]
  GI50: 46.8 µM
  TGI: > 100 µM
